# Results reported in paper PMC5590075, “Synthesis, Antimicrobial, and Antioxidant Activities of Chalcogen-Containing Nitrone Derivatives from (R)-citronellal” (Medicines, 2017).
# Where two headings read alike, the source gives them in different places.
# Assays:
# [1] = system: Bacillus cereus ATCC 11778; assay: MIC and MBC, macro dilution tube method; format: cell-based
# From the text: (§1) To evaluate the antimicrobial potential of the synthesized compounds, the following reference strains of bacteria, that are economically important in foods, were employed: Gram-positive Listeria monocytogenes ATCC 7644, Staphylococcus aureus ATCC 25923, and Bacillus cereus ATCC 11778; Gram-negative Salmonella Typhimurium ATCC 14028, Escherichia coli O157: H7 NCTC 12900 and the clinically important Pseudomonas aeruginosa ATCC 15442.
# (§2) The antimicrobial activity assay using the disk diffusion test was realized using the methodology that is recommended by the Clinical Laboratory Standards Institute (CLSI). The determination of the minimum inhibitory concentration (MIC) and minimum bactericidal concentration (MBC) was performed using the macro dilution tube method, in accordance with Rota et al., with modifications. Details of these assays are provided in the Supplemental Material. […]
# (§3) 2.2. Determination of the minimum inhibitory concentration (MIC) and minimum bactericidal concentration
# (§4) The MIC was determined using the macro dilution tube method, in accordance with Rota et al.
# (§5) [5], with modifications. The tested concentrations were 20, 18, 15, 12, 10, 7 and 5 μL.mL‐1 of each compound. In a tube with 1 mL of MH broth, was inoculated 105 UFC.mL‐1, the compound in a predetermined concentration and, to facilitate the solubility, 2 drops of TWEEN 80. The mixture was incubated at 37 °C for 24 h under stirring (150 rpm). As the positive control, MH broth and inoculum concentration in 105 UFC.mL‐1 and as the negative control MH, the inoculum concentration in 105 UFC∙mL‐1 and streptomycin (10 μg) were used. MIC was defined as the lowest concentration of […]
# (§6) After 24 h, tubes with no visible growth were seeded in a […] TSA‐YE tube and incubated at 37 °C for 24 h. The MBC is the lowest concentration of compound where 99.9% of the initially inoculated cells were killed. […]
# (§7) 2.4. Radical Scavenging Activity […]
# (§8) The ABTS radical scavenging activity was determined according to the method described by Erel. Different concentrations of compounds 5a–d and 10 (10–500 μ M) were mixed with the ABTS+ solution, and the decrease in the absorbance at 734 nm was recorded.
# [2] = system: Escherichia coli O157: H7 NCTC 12900; assay: MIC and MBC, macro dilution tube method; format: cell-based; details: for MIC: E. coli O157:H7, 10^5 CFU.mL^−1, 24 h
# From the text: as §1, §2, §3, §4, §5, §6, §7, §8
# [3] = system: Staphylococcus aureus ATCC 25923; assay: MIC and MBC, macro dilution tube method; format: cell-based; details: S. mureus (so in the source); for MBC: 10^5 CFU.mL^−1; for MIC: 10^5 CFU.mL^−1, 24 h
# From the text: as §1, §2, §3, §4, §5, §6, §7, §8
# ABTS radical scavenging = details: mean ± SD (n = 3); for IC50: read-out: ABTS radical scavenging IC50 (concentration compound required for 50% scavenging)
# Method: The antioxidant properties of the synthesized compounds (5a–d and 10) were evaluated by three different methods in vitro: DPPH (1,1-diphenyl-2-picryl-hydrazyl) and ABTS^+ (2,2′-azino-bis(3-ethylbenzthiazoline-6-sulfonic acid) radical scavenging ability and ferric ion reducing antioxidant power (FRAP). All drugs were dissolved in dimethyl sulfoxide (DMSO) at concentrations of 1–500 µM. These assays were performed according to the literature and details of these experiments are described elsewhere (see the ‘Results and Discussion’ section for the references). […]
# 2.3. Antioxidant activity assays
# The antioxidant properties of the synthesized compounds were evaluated by three different methods in vitro: DPPH and ABTS+ radical scavenging activity and ferric ion reducing antioxidant power (FRAP). All drugs were dissolved in dimethyl sulfoxide (DMSO). The experimental results were given as the means ± standard deviation (SD) to show the variations among the groups. The statistical analysis was performed using one‐way analysis of variance (ANOVA) followed by Newman‐Keuls multiple comparison test when appropriate. The differences were considered statistically significant at a probability of less than 5% (p < 0.05). All tests were performed at least three times in duplicate. The IC50 values (the concentration of sample required to scavenge 50% of the free radicals) were calculated from the graph of the scavenging effect percentage versus the […]
# 2.4. Radical Scavenging Activity
# To determine if compounds 5a–d and 10 present in vitro antioxidant activity against free radicals, DPPH and ABTS+ scavenging capability were evaluated at different concentrations. […]
# The ABTS radical scavenging activity was determined according to the method described by Erel. Different concentrations of compounds 5a–d and 10 (10–500 μ M) were mixed with the ABTS+ solution, and the decrease in the absorbance at 734 nm was recorded. […]
# values, as calculated by the following equation:
# I% = [(Ac−As/Ac) × 100] (1)
# 3. Ferric ion reducing antioxidant power (FRAP) […]
# reducing capacity of compounds 5a–d and 10.
# [8] with slight modifications.
# They were homogenized in a 0.1 M
# The supernatants were used for determination of the δ‐ALAD activity. […]
# and 500 μL of distilled water. […]
# and the absorbance was read at 555 nm.
# δ-ALA-D = molecular target: T1, δ-ALA-D (Mus musculus, UniProt P10518); assay: δ-ALA-D activity in tissue supernatants (in vitro toxicity); details: mean ± SD (n = 3)
# T1 sequence (P10518 1-330): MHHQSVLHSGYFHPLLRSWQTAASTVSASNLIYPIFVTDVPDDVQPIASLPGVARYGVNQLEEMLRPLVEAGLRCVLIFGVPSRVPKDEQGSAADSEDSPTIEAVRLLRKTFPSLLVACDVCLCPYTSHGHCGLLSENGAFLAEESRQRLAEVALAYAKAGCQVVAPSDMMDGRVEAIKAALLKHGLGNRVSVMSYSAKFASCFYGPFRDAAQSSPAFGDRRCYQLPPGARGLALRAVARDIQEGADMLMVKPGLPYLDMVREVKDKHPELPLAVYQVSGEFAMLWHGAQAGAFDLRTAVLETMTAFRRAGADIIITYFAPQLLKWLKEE
# [4] = system: Listeria monocytogenes ATCC 7644; assay: MIC and MBC, macro dilution tube method; format: cell-based; details: L. monocytogenes; for MBC: 10^5 CFU.mL^−1; for MIC: 10^5 CFU.mL^−1, 24 h
# From the text: as §1, §2, §3, §4, §5, §6, §7, §8
# [5] = B. mereus (so in the source), 10^5 CFU.mL^−1
# [6] = B. mereus (so in the source), 10^5 CFU.mL^−1, 24 h
# [7] = E. coli O157:H7, 10^5 CFU.mL^−1
Structure (SMILES),"MBC [1, 5] [mM.mL^−1]","MIC [1, 6] [mM.mL^−1]","MBC [2, 7] [mM.mL^−1]",MIC [2] [mM.mL^−1],MBC [3] [mM.mL^−1],MIC [3] [mM.mL^−1],"ABTS radical scavenging, percentage of inhibition in relation to control (ABTS radical scavenging; 50 μM) [%]","ABTS radical scavenging, percentage of inhibition in relation to control (ABTS radical scavenging; 100 μM) [%]","δ-ALA-D activity (δ-ALA-D; Brain, 10 μM) [nmol PBG.mg.tn‐1.h‐1]","δ-ALA-D activity (δ-ALA-D; Brain, 50 μM) [nmol PBG.mg.tn‐1.h‐1]","δ-ALA-D activity (δ-ALA-D; Brain, 100 μM) [nmol PBG.mg.tn‐1.h‐1]","δ-ALA-D activity (δ-ALA-D; Brain, 500 μM) [nmol PBG.mg.tn‐1.h‐1]","δ-ALA-D activity (δ-ALA-D; Kidney, 10 μM) [nmol PBG.mg.tn‐1.h‐1]","δ-ALA-D activity (δ-ALA-D; Kidney, 50 μM) [nmol PBG.mg.tn‐1.h‐1]","δ-ALA-D activity (δ-ALA-D; Kidney, 100 μM) [nmol PBG.mg.tn‐1.h‐1]","δ-ALA-D activity (δ-ALA-D; Kidney, 500 μM) [nmol PBG.mg.tn‐1.h‐1]","δ-ALA-D activity (δ-ALA-D; Liver, 10 μM) [nmol PBG.mg.tn‐1.h‐1]","δ-ALA-D activity (δ-ALA-D; Liver, 50 μM) [nmol PBG.mg.tn‐1.h‐1]","δ-ALA-D activity (δ-ALA-D; Liver, 100 μM) [nmol PBG.mg.tn‐1.h‐1]","δ-ALA-D activity (δ-ALA-D; Liver, 500 μM) [nmol PBG.mg.tn‐1.h‐1]",further results
"CC(C)=CCCC(C)C(/C=[N+](\C)[O-])Sc1ccccc1 (stereo not shown) [5a, (E)-N,3,7-Trimethyl-2-(phenylthio)oct-6-en-1-imine oxide]",0.59,0.48,>0.65,>0.65,>0.65,>0.65,11.74 ± 0.47,22.84 ± 1.02,0.44 ± 0.09,0.42 ± 0.10,0.40 ± 0.11,0.36 ± 0.10,1.17 ± 0.05,1.17 ± 0.07,1.09 ± 0.08,0.90 ± 0.08,4.99 ± 0.84,4.87 ± 0.67,4.71 ± 0.89,4.46 ± 0.80,"MBC ([1]; Bacillus cereus, ATCC11778): 590 µM; MIC ([1]; Bacillus cereus, ATCC11778, read-out: minimal inhibitory concentration (MIC)): 480 µM; ABTS radical scavenging, percentage of inhibition in relation to control (ABTS radical scavenging; 500 μM): 77.61 ± 0.81 %; IC50 (ABTS radical scavenging): 297 ± 1 µM"
"CC(C)=CCCC(C)(C/C=[N+](\C)[O-])Sc1ccccc1 (stereo not shown) [5c, (E)-N,3,7-trimethyl-3-(phenylthio)oct-6-en-1-imine oxide]",0.69,0.69,0.52,0.52,0.69,0.61,4.18 ± 1.23,11.60 ± 1.50,0.30 ± 0.10,0.28 ± 0.09,0.26 ± 0.08,0.26 ± 0.07,1.10 ± 0.12,1.02 ± 0.12,0.99 ± 0.10,0.90 ± 0.07,4.63 ± 0.82,4.31 ± 0.81,4.12 ± 0.90,3.88 ± 0.87,"MBC ([2]; Escherichia coli, NCTC12900, read-out: minimal bactericidal concentration (MBC)): 520 µM; MBC [4]: >0.69 mM.mL^−1; ABTS radical scavenging, percentage of inhibition in relation to control (ABTS radical scavenging; 500 μM): 59.51 ± 4.16 %; IC50 (ABTS radical scavenging): 419 ± 35.8 µM"
"CC(C)=CCCC(C)C/C=[N+](\C)[O-] (stereo not shown) [5d, (E)-N,3,7-trimethyloct-6-en-1-imine oxide]",>1.26,>1.26,1.26,1.13,–,1.26,0.30 ± 0.33,3.10 ± 0.48,0.29 ± 0.09,0.27 ± 0.10,0.26 ± 0.09,0.24 ± 0.08,1.02 ± 0.11,0.96 ± 0.12,0.89 ± 0.12,0.72 ± 0.07,4.50 ± 0.60,4.22 ± 0.78,3.54 ± 0.84,2.84 ± 0.57,"MIC [4]: 1.26 mM.mL^−1; ABTS radical scavenging, percentage of inhibition in relation to control (ABTS radical scavenging; 500 μM): 17.05 ± 0.47 %"
"CC(C)=CCC[C@@H](C)C(/C=N/O)[Se]c1ccccc1 (stereo partly drawn) [compound 10, (3R,E)-3,7-dimethyl-2-(phenylselanyl)oct-6-enal oxime]",>0.70,>0.70,>0.70,>0.70,>0.70,>0.70,87.59 ± 4.81,94.03 ± 1.05,0.30 ± 0.10,0.28 ± 0.09,0.26 ± 0.08,0.26 ± 0.07,0.96 ± 0.12,0.95 ± 0.10,0.84 ± 0.10,0.61 ± 0.12,4.90 ± 0.58,4.71 ± 0.53,4.57 ± 0.62,3.97 ± 0.82,"MBC [4]: >0.70 mM.mL^−1; MIC [4]: >0.70 mM.mL^−1; ABTS radical scavenging, percentage of inhibition in relation to control (ABTS radical scavenging; 5 μM): 2.39 ± 0.57%; ABTS radical scavenging, percentage of inhibition in relation to control (ABTS radical scavenging; 10 μM): 27.81 ± 2.12 %; IC50 (ABTS radical scavenging): 25 ± 2 µM"
